Test results published in patent publication US20120190666A1, “Heteroaryl Compounds as PIKK Inhibitors” (Amgen Inc., priority 2009, published 2012).

target: T1, PI3Kα (Homo sapiens, UniProt P42336); assay: In vitro PI3K AlphaScreen assay, PI3Kα; type: biochemical; details: PI(4,5)P2 substrate, 20 minutes at room temperature, read-out: P13Kalpha IC50 um
T1 construct: Full length p110 subunits of PI3K α, β and δ, N-terminally labeled with polyHis tag; polyHis (N); made in house; host or cells: Sf9 insect cells (baculovirus)
Outline: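 PI3Kα at 1.6 nM (2× stock) with PI(4,5)P2 10 μM and ATP 20 μM (2× stocks) in Tris pH 7, MgCl2, cholate, NaCl, DTT; 20 min at room temperature. Quenched with biotin-IP4/streptavidin-Donor beads, then GST-PIP3-binding protein/anti-GST Acceptor beads, 1.5 h dark; PIP3 formation read as loss of AlphaScreen signal.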

T1 sequence (P42336 whole entry): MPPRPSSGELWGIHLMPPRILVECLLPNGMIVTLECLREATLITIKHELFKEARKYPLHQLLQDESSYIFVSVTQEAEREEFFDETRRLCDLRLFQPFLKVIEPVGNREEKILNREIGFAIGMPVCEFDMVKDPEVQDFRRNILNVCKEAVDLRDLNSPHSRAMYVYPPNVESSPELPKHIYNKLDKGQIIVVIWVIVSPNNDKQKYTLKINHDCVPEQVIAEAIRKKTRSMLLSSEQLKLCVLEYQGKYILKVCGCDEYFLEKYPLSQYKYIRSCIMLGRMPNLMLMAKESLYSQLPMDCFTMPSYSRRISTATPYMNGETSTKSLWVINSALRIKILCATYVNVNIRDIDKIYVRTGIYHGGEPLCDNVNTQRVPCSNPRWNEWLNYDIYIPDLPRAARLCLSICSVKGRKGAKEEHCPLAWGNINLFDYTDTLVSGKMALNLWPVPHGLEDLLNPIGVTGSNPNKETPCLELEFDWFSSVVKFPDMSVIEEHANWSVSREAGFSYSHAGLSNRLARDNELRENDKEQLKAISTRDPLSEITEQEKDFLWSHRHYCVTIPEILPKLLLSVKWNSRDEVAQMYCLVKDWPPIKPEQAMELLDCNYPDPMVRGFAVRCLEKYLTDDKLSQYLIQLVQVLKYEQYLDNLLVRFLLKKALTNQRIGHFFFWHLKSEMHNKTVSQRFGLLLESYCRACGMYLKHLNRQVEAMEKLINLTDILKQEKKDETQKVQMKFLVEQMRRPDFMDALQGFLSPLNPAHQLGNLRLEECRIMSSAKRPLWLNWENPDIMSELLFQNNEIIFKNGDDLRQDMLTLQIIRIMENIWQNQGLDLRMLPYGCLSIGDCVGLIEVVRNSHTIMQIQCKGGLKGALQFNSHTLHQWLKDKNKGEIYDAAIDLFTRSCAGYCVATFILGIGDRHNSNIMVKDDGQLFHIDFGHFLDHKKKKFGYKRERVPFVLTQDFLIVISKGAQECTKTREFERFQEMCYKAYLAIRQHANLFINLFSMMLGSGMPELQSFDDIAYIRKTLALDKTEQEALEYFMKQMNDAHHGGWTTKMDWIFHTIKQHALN
T1 sequence (P27986 whole entry partner): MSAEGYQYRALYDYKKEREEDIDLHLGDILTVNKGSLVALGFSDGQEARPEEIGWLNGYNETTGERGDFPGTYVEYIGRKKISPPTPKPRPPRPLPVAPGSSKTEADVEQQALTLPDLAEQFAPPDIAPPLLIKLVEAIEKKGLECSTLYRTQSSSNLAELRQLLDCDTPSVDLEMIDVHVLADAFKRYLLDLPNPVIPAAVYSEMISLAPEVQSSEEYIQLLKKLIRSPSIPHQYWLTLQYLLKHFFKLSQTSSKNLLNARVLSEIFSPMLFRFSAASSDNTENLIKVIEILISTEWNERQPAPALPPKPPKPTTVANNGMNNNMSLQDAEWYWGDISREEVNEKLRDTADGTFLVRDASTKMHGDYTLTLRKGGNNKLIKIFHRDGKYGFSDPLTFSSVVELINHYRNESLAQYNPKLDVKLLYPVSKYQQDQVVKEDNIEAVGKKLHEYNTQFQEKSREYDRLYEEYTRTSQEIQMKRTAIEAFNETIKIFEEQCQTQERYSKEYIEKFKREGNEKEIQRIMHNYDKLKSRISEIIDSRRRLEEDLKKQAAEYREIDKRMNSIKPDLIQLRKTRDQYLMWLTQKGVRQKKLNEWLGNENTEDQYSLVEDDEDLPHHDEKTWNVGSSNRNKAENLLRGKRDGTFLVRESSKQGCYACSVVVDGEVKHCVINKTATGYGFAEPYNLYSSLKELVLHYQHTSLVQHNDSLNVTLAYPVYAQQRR

| Structure (SMILES) | IC50 |
| --- | --- |
| Cc1nc(NC(=O)N2CCN(C)CC2)cc(-c2c(Nc3cc[nH]n3)nc3cccnn23)n1 [Cpd 77, 4-methyl-N-(2-methyl-6-(2-(1H-pyrazol-3-ylamino)imidazo[1,2-b]pyridazin-3-yl)-4-pyrimidinyl)-1-piperazinecarboxamide] | 15300 nM |
| Cc1nc(NCC#N)cc(-c2c(Nc3cc[nH]n3)nc3cccnn23)n1 [Cpd 90] | 590 nM |
| Cc1nc(NC(=O)CN(C)C)cc(-c2c(Nc3ccn(C)n3)nc3cccnn23)n1 [Cpd 92] | 20100 nM |
| Cc1nc(N)nc(-c2c(Nc3cc[nH]n3)nc3ccc(C4=CCN(C(=O)OC(C)(C)C)CC4)cn23)n1 [Cpd 97, tert-butyl 4-(3-(4-amino-6-methyl-1,3,5-triazin-2-yl)-2-(1H-pyrazol-3-ylamino)imidazo[1,2-a]pyridin-6-yl)-3,6-dihydro-1(2H)-pyridinecarboxylate] | 350 nM |
| CNC(=O)c1ccc(-c2ccc3nc(Nc4cc[nH]n4)c(-c4nc(C)nc(N)n4)n3c2)cc1F [Cpd 99, 4-(3-(4-amino-6-methyl-1,3,5-triazin-2-yl)-2-(1H-pyrazol-3-ylamino)imidazo[1,2-a]pyridin-6-yl)-2-fluoro-N-methylbenzamide] | 110 nM |
| CC(=O)NCc1ccc(-c2ccc3nc(Nc4cc[nH]n4)c(-c4nc(C)nc(N)n4)n3c2)cc1 [Cpd 100, N-(4-(3-(4-amino-6-methyl-1,3,5-triazin-2-yl)-2-(1H-pyrazol-3-ylamino)imidazo[1,2-a]pyridin-6-yl)benzyl)acetamide] | 420 nM |
| Cc1nc(N)nc(-c2c(Nc3cc[nH]n3)nc3ccc(-c4ccoc4)cn23)n1 [Cpd 105, 3-(4-amino-6-methyl-1,3,5-triazin-2-yl)-6-(3-furanyl)-N-1H-pyrazol-3-ylimidazo[1,2-a]pyridin-2-amine] | 40 nM |
| Cc1nc(N)nc(-c2c(Nc3cc[nH]n3)nc3ccc(-c4ccc(F)cc4C)cn23)n1 [Cpd 107, 3-(4-amino-6-methyl-1,3,5-triazin-2-yl)-6-(4-fluoro-2-methylphenyl)-N-1H-pyrazol-3-ylimidazo[1,2-a]pyridin-2-amine] | 250 nM |
| CSc1cccc(-c2ccc3nc(Nc4cc[nH]n4)c(-c4nc(C)nc(N)n4)n3c2)c1 [Cpd 109, 3-(4-amino-6-methyl-1,3,5-triazin-2-yl)-6-(3-(methylsulfanyl)phenyl)-N-1H-pyrazol-3-ylimidazo[1,2-a]pyridin-2-amine] | 470 nM |
| CC(=O)Nc1cccc(-c2ccc3nc(Nc4cc[nH]n4)c(-c4nc(C)nc(N)n4)n3c2)c1 [Cpd 114, N-(3-(3-(4-amino-6-methyl-1,3,5-triazin-2-yl)-2-(1H-pyrazol-3-ylamino)imidazo[1,2-a]pyridin-6-yl)phenyl)acetamide] | 100 nM |
| Cc1nc(N)nc(-c2c(Nc3cc[nH]n3)nc3ccc(-c4cccc(NC(=O)C5CC5)c4)cn23)n1 [Cpd 115, N-(3-(3-(4-amino-6-methyl-1,3,5-triazin-2-yl)-2-(1H-pyrazol-3-ylamino)imidazo[1,2-a]pyridin-6-yl)phenyl)cyclopropanecarboxamide] | 40 nM |
| Cc1nc(NC(=O)C2CC2)cc(-c2c(Nc3cc[nH]n3)nc3cccnn23)n1 [Cpd 120] | 1000 nM |
| COCC(=O)Nc1cc(-c2c(Nc3ccn(C)n3)nc3cccnn23)nc(C)n1 [Cpd 123, 2-methoxy-N-(2-methyl-6-(2-((1-methyl-1H-pyrazol-3-yl)amino)imidazo[1,2-b]pyridazin-3-yl)-4-pyrimidinyl)acetamide] | 6930 nM |
| Cc1nc(NC(=O)CC#N)cc(-c2c(Nc3ccn(C)n3)nc3ccccn23)n1 [Cpd 126, 2-cyano-N-(2-methyl-6-(2-((1-methyl-1H-pyrazol-3-yl)amino)imidazo[1,2-a]pyridin-3-yl)-4-pyrimidinyl)acetamide] | 5340 nM |
| Cc1nc(NC(=O)CC(F)(F)F)cc(-c2c(Nc3ccn(C)n3)nc3cccnn23)n1 [Cpd 134, 3,3,3-trifluoro-N-(2-methyl-6-(2-((1-methyl-1H-pyrazol-3-yl)amino)imidazo[1,2-b]pyridazin-3-yl)-4-pyrimidinyl)propanamide] | 2080 nM |
| Cc1nc(Nc2ccc(N3CCOC(C)C3)nn2)cc(-c2c(Nc3cc[nH]n3)nc3cccnn23)n1 (centres unmarked) [Cpd 140, 3-(2-methyl-6-((6-(2-methyl-4-morpholinyl)-3-pyridazinyl)amino)-4-pyrimidinyl)-N-1H-pyrazol-3-ylimidazo[1,2-b]pyridazin-2-amine] | 60 nM |
| Cc1nc(N)cc(-c2c(Nc3cccc(N4CCN(C)CC4)c3)nc3cccnn23)n1 [Cpd 151, 3-(6-amino-2-methyl-4-pyrimidinyl)-N-(3-(4-methyl-1-piperazinyl)-phenyl)imidazo[1,2-b]pyridazin-2-amine] | 9520 nM |
| Cc1nc(N)nc(-c2c(Nc3cc[nH]n3)nc3ccc(Nc4ccncc4)cn23)n1 [Cpd 166] | 5650 nM |

| Structure (SMILES) | IC50 |
| --- | --- |
| Cc1nc(N)nc(-c2c(Nc3cc[nH]n3)nc3ccc(-c4ccc5c(c4)CCNC5=O)cn23)n1 [Cpd 175, 6-(3-(4-amino-6-methyl-1,3,5-triazin-2-yl)-2-(1H-pyrazol-3-ylamino)imidazo[1,2-a]pyridin-6-yl)-3,4-dihydro-1(2H)-isoquinolinone] | 140 nM |
| Cc1nc(N)nc(-c2c(Nc3cc[nH]n3)nc3ccc(-c4ccc(C(=O)O)cc4C)cn23)n1 [Cpd 177, 4-(3-(4-amino-6-methyl-1,3,5-triazin-2-yl)-2-(1H-pyrazol-3-ylamino)imidazo[1,2-a]pyridin-6-yl)-3-methylbenzoic acid] | 80 nM |
| Cc1nc(N)nc(-c2c(Nc3cc[nH]n3)nc3cc(C4=CCN(C(=O)OC(C)(C)C)CC4)ccn23)n1 [Cpd 183, tert-butyl 4-(3-(4-amino-6-methyl-1,3,5-triazin-2-yl)-2-(1H-pyrazol-3-ylamino)imidazo[1,2-a]pyridin-7-yl)-3,6-dihydro-1(2H)-pyridinecarboxylate] | 50 nM |
| COCCOc1ccn2c(-c3nc(C)nc(N)n3)c(Nc3cc[nH]n3)nc2c1 [Cpd 185, 3-(4-amino-6-methyl-1,3,5-triazin-2-yl)-7-(2-methoxyethoxy)-N-1H-pyrazol-3-ylimidazo[1,2-a]pyridin-2-amine] | 700 nM |
| Cc1nc(N)nc(-c2c(Nc3cc[nH]n3)nc3cc(OCCN4CCCC4)ccn23)n1 [Cpd 188] | 7010 nM |
| Cc1nc(N)nc(-c2c(Nc3ccn(C(=O)Nc4ccccc4)n3)nc3ccccn23)n1 [Cpd 204, 3-((3-(4-amino-6-methyl-1,3,5-triazin-2-yl)imidazo[1,2-a]pyridin-2-yl)amino)-N-phenyl-1H-pyrazole-1-carboxamide] | 3000 nM |
| Cc1nc(N)nc(-c2c(Nc3cnn(C(=O)Oc4ccccc4)c3)nc3ccccn23)n1 [Cpd 209, phenyl 4-((3-(4-amino-6-methyl-1,3,5-triazin-2-yl)imidazo[1,2-a]pyridin-2-yl)amino)-1H-pyrazole-1-carboxylate] | 830 nM |
| Cc1nc(N)cc(-c2c(Nc3ccn(-c4ccccn4)n3)nc3ccccn23)n1 [Cpd 216, 3-(6-amino-2-methyl-4-pyrimidinyl)-N-(1-(2-pyridinyl)-1H-pyrazol-3-yl)imidazo[1,2-a]pyridin-2-amine] | 1370 nM |
| Cc1nc(N)cc(-c2c(Nc3ccn(C(=O)NCc4ccccc4)n3)nc3ccccn23)n1 [Cpd 222, 3-((3-(6-amino-2-methyl-4-pyrimidinyl)imidazo[1,2-a]pyridin-2-yl)amino)-N-benzyl-1H-pyrazole-1-carboxamide] | 1200 nM |
| Cc1nc(N)cc(-c2c(Nc3ccn(C(=O)Nc4ccccc4C(F)(F)F)n3)nc3cccnn23)n1 [Cpd 239, 3-((3-(6-amino-2-methyl-4-pyrimidinyl)imidazo[1,2-b]pyridazin-2-yl)amino)-N-(2-(trifluoromethyl)phenyl)-1H-pyrazole-1-carboxamide] | 3010 nM |
| Cc1nc(N)cc(-c2c(Nc3ccn(C(=O)Nc4cc(F)cc(F)c4)n3)nc3cccnn23)n1 [Cpd 242, 3-((3-(6-amino-2-methyl-4-pyrimidinyl)imidazo[1,2-b]pyridazin-2-yl)amino)-N-(3,5-difluorophenyl)-1H-pyrazole-1-carboxamide] | 2320 nM |
| Cc1nc(N)cc(-c2c(Nc3ccnn3C(=O)N3CCC3)nc3cccnn23)n1 [Cpd 257, 3-(6-amino-2-methyl-4-pyrimidinyl)-N-(1-(1-azetidinylcarbonyl)-1H-pyrazol-5-yl)imidazo[1,2-b]pyridazin-2-amine] | 46500 nM |
| COc1ccc(-c2ccc3nc(Nc4ccn[nH]4)c(-c4nc(C)nc(N)n4)n3c2)cc1CO [Cpd 286] | 130 nM |
| Cc1nc(N)nc(-c2c(Nc3ccn[nH]3)nc3ccc(CCC(O)CO)cn23)n1 (centres unmarked) [Cpd 291, 4-(3-(4-amino-6-methyl-1,3,5-triazin-2-yl)-2-(1H-pyrazol-5-ylamino)-midazo[1,2-a]pyridin-6-yl)-1,2-butanediol] | 170 nM |
| Cc1nc(N)nc(-c2c(Nc3cc[nH]n3)nc3ccc(-c4ccc(S(C)(=O)=O)cc4)cn23)n1 [Cpd 344, 3-(4-amino-6-methyl-1,3,5-triazin-2-yl)-6-(4-(methylsulfonyl)phenyl)-N-1H-pyrazol-3-ylimidazo[1,2-a]pyridin-2-amine] | 70 nM |
| CNS(=O)(=O)c1ccc(-c2ccc3nc(Nc4cc[nH]n4)c(-c4nc(C)nc(N)n4)n3c2)cc1 [Cpd 351, 4-(3-(4-amino-6-methyl-1,3,5-triazin-2-yl)-2-(1H-pyrazol-3-ylamino)imidazo[1,2-a]pyridin-6-yl)-N-methylbenzenesulfonamide] | 480 nM |
| Cc1nc(N)nc(-c2c(Nc3ccn(C)n3)nc3ccc(-c4ccc(S(C)(=O)=O)cc4)cn23)n1 [Cpd 354] | 770 nM |
